We go through 14 compounds from PubChem BioAssay (NCI).

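Results reflect a 48-hour exposure of cells in 96-well plates to compound at five concentrations. TGI is the concentration that stops growth completely.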 Some results are limits rather than exact numbers.

Among the test systems are DU-145 prostate; SF-539 CNS; LOX IMVI melanoma; ACHN renal; NCI/ADR-RES ovarian; OVCAR-5 ovarian; SF-268 CNS; HCT-116 colon; SK-MEL-2 melanoma; OVCAR-3 ovarian.
What all share (test): NCI tumour cell line growth inhibition, 48 h

Take `COc1cc2c(cc1OC)-c1[nH]c3ccc(C#N)cc3c1CC(=O)N2`: the TGI was more than 100 µM in the test with DU-145 prostate; more than 100 µM in the test with SF-539 CNS; more than 33.6 µM with LOX IMVI melanoma; more than 100 µM in the test with ACHN renal; more than 100 µM with NCI/ADR-RES ovarian; more than 24.7 µM in the test on OVCAR-5 ovarian. The same compound had a TGI in the test on SF-268 CNS of more than 100 µM.

In the case of `COc1ccccc1C1CC(=O)CC(c2ccccc2OC)C12C(=O)NC(=S)NC2=O` (centres undefined), the TGI with DU-145 prostate, with HCT-116 colon, with SF-539 CNS, with LOX IMVI melanoma, with SK-MEL-2 melanoma and in the test with ACHN renal was more than 100 µM throughout. Besides, the TGI with NCI/ADR-RES ovarian, in the test with OVCAR-5 ovarian, with SF-268 CNS and in the test on OVCAR-3 ovarian was more than 100 µM in each case.

As to `COC(=O)[C@H](Cc1ccccc1)NC(=O)NCCN(CCNC(=O)N[C@@H](Cc1ccccc1)C(=O)OC)C(=O)N[C@@H](Cc1ccccc1)C(=O)OC`, the TGI in the test with DU-145 prostate came to 41.6 µM; in the test on HCT-116 colon it was 35.8 µM; in the test with SF-539 CNS, 47.1 µM; in the test with LOX IMVI melanoma it was 76.3 µM; in the test with SK-MEL-2 melanoma it was 42.5 µM; in the test on ACHN renal, 51.6 µM. Further, the TGI was more than 100 µM in the test on NCI/ADR-RES ovarian, 35.2 µM in the test with OVCAR-5 ovarian, 31.5 µM with SF-268 CNS and 39.7 µM in the test on OVCAR-3 ovarian.

With `NC(=O)C(Nc1c(Cl)cccc1Cl)c1cc2cc(Br)ccc2nc1Cl` (centres undefined), the TGI in the test on DU-145 prostate, in the test on HCT-116 colon, in the test with SF-539 CNS, in the test with LOX IMVI melanoma, with SK-MEL-2 melanoma and with ACHN renal was more than 100 µM in each case. The TGI with NCI/ADR-RES ovarian, in the test with OVCAR-5 ovarian, with SF-268 CNS and with OVCAR-3 ovarian was more than 100 µM in each case.

In the case of `COc1ccc(/C=C2/C(C)=NN(c3cccc(Cl)c3)/C2=N/c2nc3ccccc3s2)cc1`, the TGI came to 39.4 µM in the test with DU-145 prostate; 33.9 µM in the test with HCT-116 colon; 60.7 µM in the test with SF-539 CNS; 33.4 µM with LOX IMVI melanoma; 41.8 µM in the test with SK-MEL-2 melanoma; 42.2 µM with ACHN renal. In addition, the TGI in the test on NCI/ADR-RES ovarian was 71.6 µM; in the test on OVCAR-5 ovarian, 69.6 µM; in the test on SF-268 CNS, 66.9 µM; with OVCAR-3 ovarian it was 48.8 µM.

Regarding `COc1cc(OCc2ccc3nc(-c4ccccc4)c(N)nc3c2)cc(OC)c1OC`, the TGI in the test with DU-145 prostate stood at 77.8 µM; in the test with HCT-116 colon it was 21.1 µM; in the test on SF-539 CNS it was 44.2 µM; in the test with LOX IMVI melanoma it was 29.7 µM; with SK-MEL-2 melanoma it was 43.9 µM; with ACHN renal it was 63.8 µM. Further, the TGI in the test on NCI/ADR-RES ovarian is 49.6 µM; with OVCAR-5 ovarian, 55.3 µM; in the test with SF-268 CNS it was more than 100 µM; with OVCAR-3 ovarian, 42.1 µM.

Consider `CCc1nnc(CC)n1NCCCC(=O)O`, for which the TGI in the test on DU-145 prostate, in the test with HCT-116 colon, in the test on SF-539 CNS, in the test on LOX IMVI melanoma, in the test with SK-MEL-2 melanoma and in the test on ACHN renal was more than 100 µM in each case. Further, the TGI in the test on NCI/ADR-RES ovarian, with OVCAR-5 ovarian, in the test with SF-268 CNS and in the test on OVCAR-3 ovarian was more than 100 µM throughout.

Regarding `CSC1=N[C@H](c2ccccc2)CS1`, the TGI with DU-145 prostate, in the test with HCT-116 colon, with SF-539 CNS, in the test on SK-MEL-2 melanoma, in the test on ACHN renal and in the test on NCI/ADR-RES ovarian was more than 100 µM each time. Also, the TGI in the test on OVCAR-5 ovarian and with OVCAR-3 ovarian was more than 100 µM each time.

In the case of `CC(C)=CCOc1cc(NC(=S)c2ccoc2C)ccc1Cl`, the TGI in the test with DU-145 prostate, with HCT-116 colon, with SF-539 CNS, in the test with LOX IMVI melanoma, with SK-MEL-2 melanoma and in the test with ACHN renal was more than 100 µM in each case. Moreover, the TGI with NCI/ADR-RES ovarian, with OVCAR-5 ovarian, in the test on SF-268 CNS and with OVCAR-3 ovarian was more than 100 µM in each case.

On to `C=C(c1ccccc1)C1ON(C)CCc2cc(OC)c(OC)cc21` (centres undefined), for which the TGI with DU-145 prostate, with HCT-116 colon, in the test on SF-539 CNS, in the test on LOX IMVI melanoma, in the test with ACHN renal and in the test with NCI/ADR-RES ovarian was more than 100 µM each time. For the same compound, the TGI in the test on OVCAR-5 ovarian, in the test on SF-268 CNS and in the test on OVCAR-3 ovarian was more than 100 µM each time.

With `Oc1ccccc1/C=N/Nc1nnc2c3ccccc3c3ccccc3c2n1`, the TGI with DU-145 prostate, in the test with HCT-116 colon, with SF-539 CNS, with LOX IMVI melanoma, with SK-MEL-2 melanoma and with ACHN renal was more than 100 µM each time. Besides, the TGI was more than 100 µM in the test on NCI/ADR-RES ovarian, more than 100 µM in the test on OVCAR-5 ovarian, more than 100 µM with SF-268 CNS and 44.2 µM in the test on OVCAR-3 ovarian.

Regarding `C/C(=N\N)C(CN(C)C)C(c1ccccc1)c1c(O)c2ccccc2oc1=O` (centres undefined), the TGI in the test with DU-145 prostate, in the test on HCT-116 colon, in the test with SF-539 CNS, with LOX IMVI melanoma, with SK-MEL-2 melanoma and in the test with ACHN renal was more than 100 µM in each case. Besides, the TGI in the test with NCI/ADR-RES ovarian, with OVCAR-5 ovarian, with SF-268 CNS and in the test on OVCAR-3 ovarian was more than 100 µM throughout.

Consider `COc1cc(S(=O)(=O)Nc2ccc(-c3csc(N4C(=O)CSC4c4cccs4)n3)cc2)ccc1Cl` (centres undefined), for which the TGI was 62 µM in the test with DU-145 prostate; more than 100 µM in the test on HCT-116 colon; 61.6 µM with SF-539 CNS; 36.6 µM in the test with LOX IMVI melanoma; 42.6 µM with SK-MEL-2 melanoma; more than 100 µM in the test on ACHN renal. The TGI is more than 100 µM in the test on NCI/ADR-RES ovarian, more than 100 µM in the test with OVCAR-5 ovarian, 40.5 µM in the test with SF-268 CNS and more than 100 µM with OVCAR-3 ovarian.

`COc1cc(Br)c(OC)c2c(OC)cc(C)cc12`: the TGI in the test on DU-145 prostate, in the test with HCT-116 colon, in the test on SF-539 CNS, in the test with LOX IMVI melanoma, in the test on SK-MEL-2 melanoma and with ACHN renal was more than 100 µM in each case. In addition, the TGI in the test on NCI/ADR-RES ovarian, with OVCAR-5 ovarian, in the test on SF-268 CNS and with OVCAR-3 ovarian was more than 100 µM throughout.
